# Laboratory results from PubChem BioAssay (NCI).
# Where “and” joins values, the source holds several entries; their conditions need not be identical. Identical values can stand only once.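 Compound exposure: 48 hours, 5 concentrations, 96-well plates. At the GI50, growth is halved. The concentration for full growth arrest is given as TGI.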
# Columns and labels:
# Assay in all cases: growth of human tumour cells (NCI), 48 h
# HOP-62 NSCLC = tested on: HOP-62 NSCLC
# A549 NSCLC = tested on: A549 NSCLC
# UACC-62 melanoma = tested on: UACC-62 melanoma
# SNB-75 CNS = tested on: SNB-75 CNS
# DU-145 prostate = tested on: DU-145 prostate
# COLO 205 colon = tested on: COLO 205 colon
# TK-10 renal = tested on: TK-10 renal
# SK-MEL-5 melanoma = tested on: SK-MEL-5 melanoma
# KM12 colon = tested on: KM12 colon
# NCI/ADR-RES ovarian = tested on: NCI/ADR-RES ovarian
SMILES,GI50 (HOP-62 NSCLC),TGI (HOP-62 NSCLC),GI50 (A549 NSCLC),TGI (A549 NSCLC),GI50 (UACC-62 melanoma),TGI (UACC-62 melanoma),GI50 (SNB-75 CNS),TGI (SNB-75 CNS),GI50 (DU-145 prostate),GI50 (COLO 205 colon),TGI (COLO 205 colon),GI50 (TK-10 renal),TGI (TK-10 renal),GI50 (SK-MEL-5 melanoma),TGI (SK-MEL-5 melanoma),GI50 (KM12 colon),TGI (KM12 colon),GI50 (NCI/ADR-RES ovarian),TGI (DU-145 prostate),TGI (NCI/ADR-RES ovarian)
COc1ccc2c(c1)cn1c3ccc(OC)cc3[nH]c(=O)c21,< 0.0252 µM,1.66 µM,< 0.0205 µM,1.33 µM,< 0.0174 µM,1.39 µM,0.0203 µM,1.19 µM,< 0.0217 µM,< 0.0175 µM,0.0294 µM,1.17 µM,2.44 µM,< 0.019 µM,0.76 µM,< 0.0187 µM,0.247 µM,< 0.01 µM,,
Cc1cccc(C)c1NC(=O)/C(CC(=O)CC(c1ccccc1)c1c(O)c2ccccc2oc1=O)=N/O (centres undefined),,> 100 µM,,> 100 µM,,> 100 µM,,> 100 µM,,,> 100 µM,,> 100 µM,,> 100 µM,,> 100 µM,,> 100 µM,> 100 µM
COc1cc(-c2nc3cc(Cl)c(Cl)cc3[nH]2)ccc1OCC(=O)N=Nc1c(O)[nH]c2ccccc12,0.832 µM,2.62 µM,1.41 µM,14.1 µM,1.41 µM,2.75 µM,1.23 µM,2.65 µM,0.501 µM,0.384 µM,1.5 µM,2.45 µM,6.76 µM,0.541 µM,1.76 µM,1.07 µM,3.19 µM,> 79.9 µM,1.9 µM,> 100 µM
CN(Cc1cccc(Cl)c1)c1ccc(CO)c(Cl)c1,6.77 µM,25.6 µM,5.19 µM,23.9 µM,0.321 µM,3.75 µM,14.7 µM,49.7 µM,21 µM,7.39 µM,20.9 µM,0.215 µM,1.36 µM,7.47 µM,20.7 µM,18.7 µM,43.3 µM,14.6 µM,> 51.1 µM,44.1 µM
CC(=O)O[C@H]1CC[C@@]2(C)[C@@H](CC[C@@H]3[C@@H]2CC(=O)[C@@]2(C)[C@H]3C[C@@H]3CC(C)=CC(=O)[C@@H]32)C1,,> 100 µM,,> 100 µM,,> 100 µM,,73.8 µM,,,> 100 µM,,> 100 µM,,> 100 µM,,> 100 µM,,> 100 µM,> 100 µM
O=C1COCCN1c1ccc(NCc2cn(Cc3ccc(F)cc3)c3ccccc23)cc1,0.783 µM,> 31.7 µM,1.68 µM,> 100 µM,0.0978 µM,0.617 µM,2.03 µM,13 µM,5.33 µM,0.664 µM,5.29 µM,0.0456 µM,0.636 µM,2.6 µM,11.2 µM,15 µM,> 75.9 µM,5.44 µM,> 69.1 µM,45.3 µM
O=C(Nc1ccc(-n2cc(-c3ccncc3)c(-c3ccc(Cl)c(O)c3)n2)cc1)c1ccc(Cl)c(C(F)(F)F)c1,0.622 µM,2.2 µM,5.41 µM,> 31.4 µM,2.21 µM,7.6 µM,0.362 µM,1.9 µM,2.7 µM,1.94 µM,4.64 µM,2.69 µM,11.3 µM,0.6 µM,1.64 µM,0.451 µM,2.88 µM,2.77 µM,> 20.3 µM,> 100 µM
Nc1c(C(=O)Nc2cccc3ccccc23)sc2nc3c(cc12)CCCCCC3,5.05 µM,> 50 µM,2.54 µM,> 50 µM,1.62 µM,> 50 µM,1.24 µM,> 50 µM,2.05 µM,1.45 µM,4.8 µM,> 50 µM,> 50 µM,0.929 µM,6.85 µM,1.39 µM,> 50 µM,0.784 µM,> 50 µM,> 50 µM
Nc1c(S(=O)(=O)O)cc2c(c1Cl)C(=O)c1ccccc1C2=O,> 100 µM,> 100 µM,> 100 µM,> 100 µM,> 100 µM,> 100 µM,> 100 µM,> 100 µM,> 100 µM,> 100 µM,> 100 µM,> 100 µM,> 100 µM,> 100 µM,> 100 µM,> 100 µM,> 100 µM,> 100 µM,> 100 µM,> 100 µM
O=C1/C=C/[C@@H](O)[C@@H]2C[C@@H](O)C[C@H]2/C=C/CCCCO1,2.23 µM,> 100 µM,0.422 µM,> 100 µM,0.416 µM,> 100 µM,0.17 µM,> 100 µM,0.857 µM,0.188 µM,0.393 µM,0.388 µM,26.2 µM,0.157 µM,0.295 µM,0.225 µM,0.553 µM,0.475 µM,> 100 µM,> 54.1 µM
COc1nc(C(Cl)(Cl)Cl)c(Cl)c(OC)c1Cl,> 43.2 µM,> 62.8 µM and 22.5 µM,> 52.5 µM,> 88.9 µM and 77.8 µM,> 50.4 µM,> 88.8 µM and 54.5 µM,,55.6 µM,,,> 65.1 µM and 80 µM,> 91.6 µM,94.5 µM,19.6 µM,34.5 µM and 83.2 µM,> 56.7 µM,> 91 µM and 70.1 µM,,73.2 µM,58.4 µM
COc1cc(Cl)c(C)cc1NC(=O)c1cc2ccccc2cc1O,2.37 µM,10.3 µM,2.96 µM,10.6 µM,1.49 µM,8.14 µM,2.4 µM,9.37 µM,3.4 µM,2.37 µM,8.41 µM,2.92 µM,7.26 µM,1.72 µM,3.93 µM,2.6 µM,8.15 µM,2.55 µM,14.4 µM,9.04 µM
Cc1nc(N(C)C)nc(-c2cccc(-c3ccn(CCN(C)C)n3)c2)c1C,> 20 µM,> 20 µM,> 20 µM,> 20 µM,> 20 µM,> 20 µM,4.04 µM,> 20 µM,> 20 µM,> 20 µM,> 20 µM,> 20 µM,> 20 µM,15.9 µM,> 20 µM,> 20 µM,> 20 µM,> 20 µM,> 20 µM,> 20 µM
COc1ccc2c(C(=O)NCCCCCC(=O)O)cc3cc4c(cc3c2c1)OCO4,> 100 µM,> 100 µM,> 100 µM,> 100 µM,83 µM,> 100 µM,23.9 µM,97.9 µM,> 100 µM,> 100 µM,> 100 µM,> 100 µM,> 100 µM,> 100 µM,> 100 µM,> 100 µM,> 100 µM,> 100 µM,> 100 µM,> 100 µM
Cc1cnc2n(c1=O)Cc1ccccc1CO2,20 µM,38 µM,28.7 µM,> 100 µM,14.7 µM,28.7 µM,25.3 µM,> 64 µM,16.6 µM,17.1 µM,37.1 µM,20.9 µM,49.4 µM,15.4 µM,29.5 µM,18 µM,34.3 µM,22.7 µM,32.1 µM,71.4 µM
Cn1cc(C2=C(c3cn(CCCN/C(N)=N\[N+](=O)[O-])c4ccccc34)C(=O)NC2=O)c2ccccc21,3.89 µM,> 16.6 µM,8.52 µM,> 25 µM,3.1 µM,7.59 µM,0.161 µM,7.92 µM,6.75 µM,1.24 µM,6.44 µM,5.87 µM,19.2 µM,2.33 µM,7.37 µM,2.77 µM,> 18.1 µM,> 25 µM,23.6 µM,> 25 µM
C=CCOc1ccc2c(c1)CC[C@@H]1[C@@H]2CC[C@]2(C)C(=O)/C(=N/O)C[C@@H]12,6.08 µM,> 49.3 µM,4.45 µM,> 48.8 µM,14.6 µM,32.5 µM,0.335 µM,8.39 µM,3.1 µM,3.16 µM,12.6 µM,1.49 µM,13.3 µM,11.6 µM,25.7 µM,3.27 µM,11.2 µM,6.92 µM,15.6 µM,> 52 µM
